Earlier results as cited in US8394592B2, “Methods for assessing cancer susceptibility to carcinogens in tobacco products” (The Board of Regents of the University of Texas System, priority 2006, dated 2013).

Key:
[1] = system: Salmonella; conditions: Ames Salmonella assay; cited from earlier work
[2] = system: rats; conditions: cited from earlier work

In the case of `CN(CCCC(=O)c1cccnc1)N=O` [NNK, 4-(methylnitrosamino)-1-(3-pyridyl)-1-butanone], the mutagenicity [1] is listed as “potent mutagen” and the “lowest dose shown to induce lung tumors” value [2] is listed as 1.8 mg.
